Reference: patent US20250140406A1, “CLASSIFYING TUMORS AND PREDICTING RESPONSIVENESS” (Oncocyte Corporation, priority 2022, published 2025)

System: cancer cell lines classified IM, MSL, M
Test: PRISM screen compound sensitivity correlated with IM, MSL and M subtype of cell lines (101 gene signature)
Type: cell-based
Conditions: not given

SMILES	TNBCType train
COCC(O)Cn1ccnc1[N+](=O)[O-] (centres unmarked) [misonidazole]	MSL
Cc1nc2n(c(=O)c1CCN1CCC(c3noc4cc(F)ccc34)CC1)CCCC2 [risperidone]	MSL

Same assay, conditions: subtype (IM, MSL or M) assigned to the compound by negative correlation of PRISM sensitivity with subtype; training cell set (371 cell lines), 101 gene signature

SMILES	TNBCType train
Cc1cc(Nc2cc(N3CCN(C)CC3)nc(/C=C/c3ccccc3)n2)n[nH]1 [ENMD-2076]	MSL
CN(C)c1cccc(-c2c3c(=O)n(-c4ccccc4Cl)[nH]c3cc(=O)n2C)c1 [GKT137831]	MSL
CCCCOc1nc(N)c2c(n1)N(Cc1cccc(CN3CCCC3)c1)CC(=O)N2 [GS-9620]	MSL
O=C(O)CCc1ccc(NCc2cccc(Oc3ccccc3)c2)cc1 [GW-9508]	MSL
CC(C)NC(=O)COc1cccc(-c2nc(Nc3ccc4[nH]ncc4c3)c3ccccc3n2)c1 [KD025]	MSL
Nc1cc(F)ccc1NC(=O)/C=C/c1cnn(C/C=C/c2ccccc2)c1 [RGFP966]	MSL
Cc1ccc(-c2ccc(C)cn2)nc1 [abametapir]	MSL
CC1(C)S[C@@H]2[C@H](NC(=O)[C@H](N)c3ccccc3)C(=O)N2[C@H]1C(=O)O [ampicillin]	MSL
Nc1ccn([C@H]2CO[C@@H](CO)S2)c(=O)n1 [apricitabine]	MSL
CCN(CC)CCn1c(=O)c(Cc2ccc(OC)cc2)nc2ccccc21 [caroverine]	MSL
N=C(N)N1CCc2ccccc2C1 [debrisoquin]	MSL
NS(=O)(=O)c1cc(Cl)c(Cl)c(S(N)(=O)=O)c1 [diclofenamide]	MSL
COc1cc(OC)cc(N(CCNC(C)C)c2ccc3ncc(-c4cnn(C)c4)nc3c2)c1 [erdafitinib]	MSL
COc1cc([C@@H]2c3cc4c(cc3[C@@H](O[C@@H]3O[C@@H]5CO[C@@H](C)O[C@H]5[C@H](O)[C@H]3O)[C@H]3COC(=O)[C@H]23)OCO4)cc(OC)c1OP(=O)(O)O [etoposide-phosphate]	MSL
Oc1ccc(C2=Cc3ccc(O)cc3OC2)cc1 [idronoxil]	MSL
COc1c2occc2c(OC)c2c(=O)cc(C)oc12 [khellin]	MSL
CCCOc1ccc(S(=O)(=O)N2CCN(CCO)CC2)cc1-c1nc2c(CCC)cn(CC)c2c(=O)[nH]1 [mirodenafil]	MSL
COc1cccc(C(=O)CCN[C@@H](C)[C@H](O)c2ccccc2)c1 [oxyfedrine]	MSL
CC[C@@H]1/C=C(\C)C[C@H](C)C[C@H](OC)[C@H]2O[C@@](O)(C(=O)C(=O)N3CCCC[C@H]3C(=O)O[C@H](/C(C)=C/[C@@H]3CC[C@H](Cl)[C@H](OC)C3)[C@H](C)[C@@H](O)CC1=O)[C@H](C)C[C@@H]2OC [pimecrolimus]	MSL
O=C(O)C[C@H](O)C[C@H](O)/C=C/c1c(C2CC2)nc2ccccc2c1-c1ccc(F)cc1 [pitavastatin]	MSL
C=Cc1cc(O)cc2nc(-c3ccc(O)c(F)c3)oc12 [prinaberel]	MSL
CCn1nc(C)c2c1C(c1ccccc1)=NCC(=O)N2 [ripazepam]	MSL
O=C1C=CC[C@@H]2[C@H]3CCCN4CCC[C@@H](CN12)[C@@H]34 [sophocarpine]	MSL

Same assay, conditions: subtype (IM, MSL or M) the PRISM compound sensitivity is associated with; training cell set (371 cell lines); 101 gene signature

SMILES	TNBCType train
CN1CC2c3ccccc3Oc3ccc(Cl)cc3C2C1 (centres unmarked) [asenapine]	MSL
O=C(/C=C/c1ccc(O)c(O)c1)OCCc1ccccc1 [caffeic-acid-phenethyl-ester]	MSL
O=C(Cn1ccnc1[N+](=O)[O-])NCCO [etanidazole]	MSL
CCOC(=O)c1ncn2c1CN(C)C(=O)c1cc(F)ccc1-2 [flumazenil]	MSL
O=P(O)(O)CP(=O)(O)O [medronic-acid]	MSL
CC[C@H](C)C(=O)O[C@H]1CCC=C2C=C[C@H](C)[C@H](CC[C@@H]3C[C@@H](O)CC(=O)O3)[C@H]21 [mevastatin]	MSL

Same assay, conditions: subtype (IM, MSL or M) with which PRISM compound sensitivity is negatively correlated; training cell set, 101 gene signature

SMILES	TNBCType train
Cc1ccc2c(=O)c3cccc(CC(=O)O)c3oc2c1C [ASA-404]	MSL
O=C(Nc1ccccc1F)N[C@H]1N=C(c2ccccc2)c2ccccc2NC1=O [RSV604]	MSL
OC1CCC(Nc2nc(-c3ccccc3)nc3[nH]ccc23)CC1 (centres unmarked) [SLV-320]	MSL
CCOC(=O)COc1ccc2c(c1)C[C@@H](NC[C@H](O)c1cccc(Cl)c1)CC2 [amibegron]	MSL
CC(=O)OCC1=C(C(=O)O)N2C(=O)[C@@H](NC(=O)Cc3cccs3)[C@H]2SC1 [cephalothin]	MSL
CC(C)NC(=N)NC(=N)Nc1ccc(Cl)c(Cl)c1 [chlorproguanil]	MSL
N#CCC(=O)NN [cyacetacide]	MSL
Cc1ccc2c(c1)[C@]13CCCC[C@@H]1[C@H](C2)N(C)CC3 [dimemorfan]	MSL
N[C@H](C(=O)O)[C@H](O)c1ccc(O)c(O)c1 [droxidopa]	MSL
CSc1ccc(C(=O)c2[nH]c(=O)[nH]c2C)cc1 [enoximone]	MSL
CC1=C(CC(=O)O)c2cc(F)ccc2/C1=C\c1ccc(S(C)(=O)=O)cc1 [exisulind]	MSL
O=C(O)c1ccccc1OP(=O)(O)O [fosfosal]	MSL
O=C1NC(c2ccccc2)(c2ccccc2)C(=O)N1COP(=O)(O)O [fosphenytoin]	MSL
CC(C)(CO)CCCCCCC(C)(C)CO [gemcadiol]	MSL
COc1cc2nccc(Oc3ccc(NC(=O)NC4CC4)c(Cl)c3)c2cc1C(N)=O [lenvatinib]	MSL
CCN1CCC[C@H]1CNC(=O)c1cc(S(N)(=O)=O)ccc1OC [levosulpiride]	MSL
CNC(=O)c1cccc2cc(Oc3ccnc4cc(OCC5(N)CC5)c(OC)cc34)ccc12 [lucitanib]	MSL
COC(=O)c1ccc2c(c1)NC(=O)/C2=C(\Nc1ccc(N(C)C(=O)CN2CCN(C)CC2)cc1)c1ccccc1 [nintedanib]	MSL
CC(C)Oc1ccc(-c2nc(-c3cccc4c3CC[C@@H]4NCCO)no2)cc1C#N [ozanimod]	MSL
Cc1cn2nc([C@@H]3CCCCN3C(=O)c3cc(Cl)ccc3NS(C)(=O)=O)cc2nc1N1CC[C@H](N)C1 [presatovir]	MSL
Cc1ccc2c(-c3ccccc3)nc(=O)n(C(C)C)c2c1 [proquazone]	MSL
O=C(N[C@H]1CN2CCC1CC2)c1cnc2ccsc2c1O [pumosetrag]	MSL
C[C@]12CC[C@H](O)C[C@H]1CC[C@@H]1[C@@H]2CC[C@]2(C)[C@@H](c3ccc(=O)oc3)C[C@H]3O[C@]132 [resibufogenin]	MSL
C[C@H]1CNCCCN1S(=O)(=O)c1cccc2cncc(F)c12 [ripasudil]	MSL
CC(C)N(CCCCOCC(=O)NS(C)(=O)=O)c1cnc(-c2ccccc2)c(-c2ccccc2)n1 [selexipag]	MSL
CC[C@H]1OC(=O)[C@@](C)(F)C(=O)[C@H](C)[C@@H](O[C@@H]2O[C@H](C)C[C@H](N(C)C)[C@H]2O)[C@](C)(OC)C[C@@H](C)C(=O)[C@H](C)[C@H]2N(CCCCn3cc(-c4cccc(N)c4)nn3)C(=O)O[C@]12C [solithromycin]	MSL

Same assay, conditions: subtype (IM, MSL or M) with which compound sensitivity is negatively correlated; training cell set (371 cell lines), 101 gene signature

SMILES	TNBCType train
CC1=C(C(=O)Nc2cc3cn[nH]c3cc2F)C(c2ccc(C(F)(F)F)cc2)CC(=O)N1 (centres unmarked) [GSK429286A]	MSL
CC(O)c1cc(C(=O)N[C@@H](C)Cn2ccc(-c3ccc(C#N)c(Cl)c3)n2)[nH]n1 (some centres unmarked) [ODM-201]	MSL
CC(CC(C(N)=O)(c1ccccc1)c1ccccc1)N(C)C (centres unmarked) [aminopentamide]	MSL
CCOC(=O)OC(C)OC(=O)[C@@H]1N2C(=O)[C@@H](NC(=O)[C@H](N)c3ccccc3)[C@H]2SC1(C)C (some centres unmarked) [bacampicillin]	MSL
O=C(/C=C/c1ccc(O)c(O)c1)c1ccc(O)cc1O [butein]	MSL
CC(C)NCC(O)COc1cccc2[nH]c3ccccc3c12 (centres unmarked) [carazolol]	MSL
Oc1c(Cl)cc(Cl)c2cccnc12 [chloroxine]	MSL
CC(C)(Oc1ccc(Cl)cc1)C(=O)O [clofibric-acid]	MSL
O=C1c2cccc(O)c2C(=O)c2c(O)cccc21 [dantron]	MSL
CC[C@H](CC[C@@H](C)[C@H]1CC[C@H]2[C@@H]3CC=C4C[C@@H](O[C@@H]5O[C@H](CO)[C@@H](O)[C@H](O)[C@H]5O)CC[C@]4(C)[C@H]3CC[C@]12C)C(C)C [daucosterol]	MSL
O=C(OCC(O)CO)c1ccccc1Nc1ccnc2c(C(F)(F)F)cccc12 (centres unmarked) [floctafenine]	MSL
O=c1[nH]cnc2nc[nH]c12 [hypoxanthine]	MSL
C[C@@H](c1nc(-c2ccc(C#N)cc2)cs1)[C@](O)(Cn1cncn1)c1cc(F)ccc1F [isavuconazole]	MSL
CC(C(=O)O)c1cccc(C(=O)c2ccccc2)c1 (centres unmarked) [ketoprofen]	MSL
Cc1[nH]cnc1-c1ccc(Cl)cc1 [lofemizole]	MSL
CCCCN1CCC(CNC(=O)c2c3n(c4ccccc24)CCCO3)CC1 [piboserod]	MSL
C[C@@H](c1nc(-c2ccc(C#N)cc2)cs1)[C@](O)(Cn1cncn1)c1ccc(F)cc1F [ravuconazole]	MSL
C=C[C@](C)(O)CC[C@@H]1[C@@]2(C)CCCC(C)(C)[C@@H]2CC[C@@]1(C)O [sclareol]	MSL

Same assay, conditions: subtype (IM, MSL, M) with which compound sensitivity correlates; test set

SMILES	TNBCType test
O=C(Nc1ccccc1F)N[C@H]1N=C(c2ccccc2)c2ccccc2NC1=O [RSV604]	MSL
COc1cc(OC)cc(N(CCNC(C)C)c2ccc3ncc(-c4cnn(C)c4)nc3c2)c1 [erdafitinib]	MSL/M
O=c1[nH]c2ccccc2n1C1CCN(CCOc2ccccc2)CC1 [oxiperomide]	MSL/M
C[C@]12CC[C@H](O)C[C@H]1CC[C@@H]1[C@@H]2CC[C@]2(C)[C@@H](c3ccc(=O)oc3)C[C@H]3O[C@]132 [resibufogenin]	MSL

Same assay, conditions: subtype (IM, MSL, M) with which compound sensitivity correlates; training set

SMILES	TNBCType train
O=C(Nc1ccccc1F)N[C@H]1N=C(c2ccccc2)c2ccccc2NC1=O [RSV604]	MSL
COc1cc(OC)cc(N(CCNC(C)C)c2ccc3ncc(-c4cnn(C)c4)nc3c2)c1 [erdafitinib]	MSL
C[C@]12CC[C@H](O)C[C@H]1CC[C@@H]1[C@@H]2CC[C@]2(C)[C@@H](c3ccc(=O)oc3)C[C@H]3O[C@]132 [resibufogenin]	MSL

Same assay, conditions: subtype with which compound sensitivity correlates; test cell lines

SMILES	TNBCType test
COc1cc(OC)cc(N(CCNC(C)C)c2ccc3ncc(-c4cnn(C)c4)nc3c2)c1 [erdafitinib]	MSL/M
CC[C@H](C)C(=O)O[C@H]1CCC=C2C=C[C@H](C)[C@H](CC[C@@H]3C[C@@H](O)CC(=O)O3)[C@H]21 [mevastatin]	MSL

Same assay, conditions: subtype with which compound sensitivity correlates; training cell lines

SMILES	TNBCType train
COc1cc(OC)cc(N(CCNC(C)C)c2ccc3ncc(-c4cnn(C)c4)nc3c2)c1 [erdafitinib]	MSL
CC[C@H](C)C(=O)O[C@H]1CCC=C2C=C[C@H](C)[C@H](CC[C@@H]3C[C@@H](O)CC(=O)O3)[C@H]21 [mevastatin]	MSL
